According to the NIST ThermoML archive (doi:10.1016/j.fluid.2009.11.004):
Numbers after ± are expanded uncertainties.

Tests used:
[1] = Liquid, Ebulliometric method (Recirculating still)
[2] = refractive index (Na D-line) (dimensionless); settings: 298.15 K; 101.33 kPa; Liquid; Standard Abbe refractometry

SMILES: CC1CCCCC1 [methylcyclohexane]
- vapor or sublimation pressure ([1]; 325.39 K): 20.25 ± 0.39 kPa
- vapor or sublimation pressure ([1]; 336.27 K): 30.47 ± 0.4 kPa
- vapor or sublimation pressure ([1]; 344.1 K): 40.07 ± 0.43 kPa
- vapor or sublimation pressure ([1]; 350.71 K): 49.96 ± 0.47 kPa
- vapor or sublimation pressure ([1]; 356.44 K): 60.05 ± 0.51 kPa
- vapor or sublimation pressure ([1]; 361.45 K): 70.17 ± 0.55 kPa
- vapor or sublimation pressure ([1]; 365.75 K): 79.96 ± 0.59 kPa
- vapor or sublimation pressure ([1]; 369.98 K): 90.64 ± 0.63 kPa
- vapor or sublimation pressure ([1]; 373.9 K): 101.6 ± 0.65 kPa

SMILES: CCCCCC [hexane]
- refractive index [2]: 1.3724 ± 0.0007

SMILES: CC1CCCC1 [methylcyclopentane]
- vapor or sublimation pressure ([1]; 300.4 K): 20.25 ± 0.4 kPa
- vapor or sublimation pressure ([1]; 310.16 K): 30.18 ± 0.41 kPa
- vapor or sublimation pressure ([1]; 317.69 K): 40.24 ± 0.45 kPa
- vapor or sublimation pressure ([1]; 323.75 K): 50.16 ± 0.49 kPa
- vapor or sublimation pressure ([1]; 328.97 K): 60.22 ± 0.53 kPa
- vapor or sublimation pressure ([1]; 333.37 K): 69.94 ± 0.58 kPa
- vapor or sublimation pressure ([1]; 337.5 K): 80.18 ± 0.62 kPa
- vapor or sublimation pressure ([1]; 341.25 K): 90.53 ± 0.68 kPa
- vapor or sublimation pressure ([1]; 345.1 K): 102.31 ± 0.7 kPa
- refractive index [2]: 1.4067 ± 0.0007

SMILES: Cc1ccsc1 [3-methylthiophene]
- refractive index [2]: 1.5172 ± 0.0007

SMILES: CCCC(C)C [2-methylpentane]
- vapor or sublimation pressure ([1]; 290.34 K): 20.3 ± 0.4 kPa
- vapor or sublimation pressure ([1]; 299.7 K): 30.13 ± 0.42 kPa
- vapor or sublimation pressure ([1]; 307.12 K): 40.39 ± 0.46 kPa
- vapor or sublimation pressure ([1]; 312.92 K): 50.23 ± 0.5 kPa
- vapor or sublimation pressure ([1]; 317.93 K): 60.24 ± 0.54 kPa
- vapor or sublimation pressure ([1]; 322.26 K): 70.13 ± 0.59 kPa
- vapor or sublimation pressure ([1]; 326.15 K): 80.11 ± 0.64 kPa
- vapor or sublimation pressure ([1]; 329.74 K): 90.32 ± 0.69 kPa
- vapor or sublimation pressure ([1]; 333.37 K): 101.76 ± 0.72 kPa
- refractive index [2]: 1.3685 ± 0.0007

SMILES: Cc1ccccc1C [1,2-dimethylbenzene]
- refractive index [2]: 1.5028 ± 0.0007
